Assay results: ChEMBL document CHEMBL4699477, “Tricyclic sulfones as potent, selective and efficacious RORγt inverse agonists - Exploring C6 and C8 SAR using late-stage functionalization” (Bioorg Med Chem Lett, 2020)
In brackets after ≈: the same amount, converted by molar mass.

What was measured:
[1] = Oral bioavailability in cynomolgus monkey at 2 mg/kg; format: ADME, organism-based, Macaca fascicularis; conditions: in vivo
[2] = Clearance in rat at 2 mg/kg, iv; format: ADME, organism-based; conditions: in vivo
[3] = Solubility of compound at pH 6.5; format: physicochemical; conditions: buffer
[4] = Total AUC in BALB/c mouse at 4 mg/kg, po; format: ADME, organism-based; parameters: time AUCmax, route oral, dose 4 mg/kg; conditions: in vivo
[5] = Oral bioavailability in dog at 2 mg/kg; format: ADME, organism-based, Canis lupus familiaris; conditions: in vivo
[6] = Volume of distribution at steady state in rat at 2 mg/kg, iv; format: ADME, organism-based; conditions: in vivo, read-out: Vdss
[7] = molecular target: T1, Nuclear receptor ROR-alpha (Homo sapiens, UniProt P35398); test: Inhibition of GAL4-fused RORalpha (unknown origin)
T1 sequence (P35398 whole entry): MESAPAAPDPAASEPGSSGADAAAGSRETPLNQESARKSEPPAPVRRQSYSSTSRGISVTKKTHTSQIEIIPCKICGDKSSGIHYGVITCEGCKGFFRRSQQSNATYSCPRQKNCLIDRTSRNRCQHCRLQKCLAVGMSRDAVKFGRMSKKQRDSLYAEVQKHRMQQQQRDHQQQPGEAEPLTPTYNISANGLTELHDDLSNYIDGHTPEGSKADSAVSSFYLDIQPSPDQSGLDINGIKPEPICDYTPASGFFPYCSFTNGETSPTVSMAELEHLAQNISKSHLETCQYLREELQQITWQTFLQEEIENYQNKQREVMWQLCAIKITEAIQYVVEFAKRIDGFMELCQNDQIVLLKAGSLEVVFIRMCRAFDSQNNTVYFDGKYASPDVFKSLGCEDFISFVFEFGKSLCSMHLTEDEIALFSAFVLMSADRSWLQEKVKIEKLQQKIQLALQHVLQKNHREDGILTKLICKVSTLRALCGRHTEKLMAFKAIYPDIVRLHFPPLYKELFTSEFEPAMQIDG

[8] = Cmax in rat at 4 mg/kg, po; format: ADME, organism-based; parameters: route oral, dose 4 mg/kg; conditions: in vivo
[9] = Half life in cynomolgus monkey at 1 mg/kg, iv; format: ADME, organism-based, Macaca fascicularis; conditions: in vivo
[10] = Solubility of compound at pH 1; format: physicochemical; conditions: buffer
[11] = Permeability in human Caco-2 cells; format: ADME, cell-based; conditions: read-out: permeability
[12] = Total AUC in dog at 1 mg/kg, iv; format: ADME, organism-based, Canis lupus familiaris; parameters: route intravenous, time AUCmax, dose 1 mg/kg; conditions: in vivo
[13] = Clearance in dog at 1 mg/kg, iv; format: ADME, organism-based, Canis lupus familiaris; conditions: in vivo
[14] = Metabolic stability in cynomolgous monkey liver microsomes assessed as half life; format: ADME, Macaca fascicularis, Microsome; conditions: cynomolgus monkey
[15] = Total AUC in cynomolgus monkey at 1 mg/kg, iv; format: ADME, organism-based, Macaca fascicularis; parameters: time AUCmax, route intravenous, dose 1 mg/kg; conditions: in vivo
[16] = molecular target: Cytochrome P450 2C19 (Homo sapiens, UniProt P33261); test: Inhibition of recombinant CYP2C19 (unknown origin); format: ADME
[17] = Clearance in cynomolgus monkey at 1 mg/kg, iv; format: ADME, organism-based, Macaca fascicularis; conditions: in vivo
[18] = Oral bioavailability in rat at 4 mg/kg; format: ADME, organism-based; conditions: in vivo
[19] = Half life in rat at 2 mg/kg, iv; format: ADME, organism-based; conditions: in vivo
[20] = Half life in dog at 1 mg/kg, iv; format: ADME, organism-based, Canis lupus familiaris; conditions: in vivo
[21] = molecular target: T2, Oxysterols receptor LXR-beta (Homo sapiens, UniProt P55055); test: Inverse agonist activity of LXRbeta (unknown origin)
T2 sequence (P55055 whole entry): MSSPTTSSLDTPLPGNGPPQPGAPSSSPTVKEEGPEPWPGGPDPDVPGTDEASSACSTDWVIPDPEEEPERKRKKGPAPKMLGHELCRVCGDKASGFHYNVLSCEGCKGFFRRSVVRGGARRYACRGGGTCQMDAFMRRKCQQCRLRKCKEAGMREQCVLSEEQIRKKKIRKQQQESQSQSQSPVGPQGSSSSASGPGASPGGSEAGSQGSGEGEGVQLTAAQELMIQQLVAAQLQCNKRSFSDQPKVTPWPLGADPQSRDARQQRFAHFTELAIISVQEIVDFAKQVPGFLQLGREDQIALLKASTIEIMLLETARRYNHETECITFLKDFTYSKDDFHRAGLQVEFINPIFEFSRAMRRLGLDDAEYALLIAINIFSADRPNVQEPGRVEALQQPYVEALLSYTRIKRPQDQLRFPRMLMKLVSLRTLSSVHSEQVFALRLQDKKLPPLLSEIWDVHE

[22] = molecular target: T3, Cytochrome P450 1A2 (Homo sapiens, UniProt P05177); test: Inhibition of recombinant CYP1A2 (unknown origin); format: ADME
T3 sequence (P05177 whole entry): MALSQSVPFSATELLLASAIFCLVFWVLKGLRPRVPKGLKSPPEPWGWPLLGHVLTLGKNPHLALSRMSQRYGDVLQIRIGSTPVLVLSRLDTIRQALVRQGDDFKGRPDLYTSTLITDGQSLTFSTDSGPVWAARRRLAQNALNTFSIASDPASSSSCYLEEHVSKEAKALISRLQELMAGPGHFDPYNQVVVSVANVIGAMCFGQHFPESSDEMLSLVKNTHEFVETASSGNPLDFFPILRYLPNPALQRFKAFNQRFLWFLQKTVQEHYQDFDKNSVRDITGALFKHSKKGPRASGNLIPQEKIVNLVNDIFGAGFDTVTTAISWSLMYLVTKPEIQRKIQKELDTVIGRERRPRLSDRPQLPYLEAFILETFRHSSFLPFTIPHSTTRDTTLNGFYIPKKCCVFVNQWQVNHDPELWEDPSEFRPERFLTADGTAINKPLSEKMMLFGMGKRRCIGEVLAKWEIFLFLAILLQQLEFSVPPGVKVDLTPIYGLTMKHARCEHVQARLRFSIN

[23] = molecular target: Cytochrome P450 2C9 (Homo sapiens, UniProt P11712); test: Inhibition of recombinant CYP2C9 (unknown origin); format: ADME
[24] = Fraction unbound in human plasma; format: ADME, cell-free
[25] = Metabolic stability in mouse liver microsomes assessed as half life; format: ADME, Microsome
[26] = Metabolic stability in dog liver microsomes assessed as half life; format: ADME, Canis lupus familiaris, Microsome
[27] = Metabolic stability in rat liver microsomes assessed as half life; format: ADME, Microsome
[28] = molecular target: T4, Nuclear receptor ROR-beta (Homo sapiens, UniProt Q92753); test: Inhibition of GAL4-fused RORbeta (unknown origin)
T4 sequence (Q92753 whole entry): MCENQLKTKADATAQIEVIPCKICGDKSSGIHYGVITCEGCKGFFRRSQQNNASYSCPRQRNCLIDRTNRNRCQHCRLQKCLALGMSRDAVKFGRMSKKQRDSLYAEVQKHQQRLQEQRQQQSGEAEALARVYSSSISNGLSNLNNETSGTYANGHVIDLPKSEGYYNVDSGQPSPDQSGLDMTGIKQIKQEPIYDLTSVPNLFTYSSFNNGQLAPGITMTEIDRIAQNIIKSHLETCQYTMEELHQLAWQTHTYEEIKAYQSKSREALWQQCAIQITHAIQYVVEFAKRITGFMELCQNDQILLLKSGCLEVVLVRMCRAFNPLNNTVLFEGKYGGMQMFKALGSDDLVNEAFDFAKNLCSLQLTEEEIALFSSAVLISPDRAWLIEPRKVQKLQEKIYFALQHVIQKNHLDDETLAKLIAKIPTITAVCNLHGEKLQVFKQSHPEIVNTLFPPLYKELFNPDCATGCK

[29] = Total AUC in dog at 2 mg/kg, po; format: ADME, organism-based, Canis lupus familiaris; parameters: time AUCmax, route oral, dose 2 mg/kg; conditions: in vivo
[30] = Volume of distribution at steady state in cynomolgus monkey at 1 mg/kg, iv; format: ADME, organism-based, Macaca fascicularis; conditions: in vivo, read-out: Vdss

Chain of Cytochrome P450 2C9 (P11712 whole entry): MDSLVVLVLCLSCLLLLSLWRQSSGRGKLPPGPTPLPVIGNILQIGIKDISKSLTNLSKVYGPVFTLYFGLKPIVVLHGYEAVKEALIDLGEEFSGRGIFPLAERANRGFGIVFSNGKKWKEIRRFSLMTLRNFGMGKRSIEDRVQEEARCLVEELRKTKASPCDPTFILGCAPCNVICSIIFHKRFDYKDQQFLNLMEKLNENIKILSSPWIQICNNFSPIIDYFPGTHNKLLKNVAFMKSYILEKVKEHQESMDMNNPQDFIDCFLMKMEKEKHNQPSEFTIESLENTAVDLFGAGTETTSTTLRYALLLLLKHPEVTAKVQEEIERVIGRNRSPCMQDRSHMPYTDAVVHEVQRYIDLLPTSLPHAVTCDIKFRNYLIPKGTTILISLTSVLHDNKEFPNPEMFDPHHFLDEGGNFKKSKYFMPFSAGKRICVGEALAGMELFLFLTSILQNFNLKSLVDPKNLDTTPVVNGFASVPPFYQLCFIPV
Chain of Cytochrome P450 2C19 (P33261 whole entry): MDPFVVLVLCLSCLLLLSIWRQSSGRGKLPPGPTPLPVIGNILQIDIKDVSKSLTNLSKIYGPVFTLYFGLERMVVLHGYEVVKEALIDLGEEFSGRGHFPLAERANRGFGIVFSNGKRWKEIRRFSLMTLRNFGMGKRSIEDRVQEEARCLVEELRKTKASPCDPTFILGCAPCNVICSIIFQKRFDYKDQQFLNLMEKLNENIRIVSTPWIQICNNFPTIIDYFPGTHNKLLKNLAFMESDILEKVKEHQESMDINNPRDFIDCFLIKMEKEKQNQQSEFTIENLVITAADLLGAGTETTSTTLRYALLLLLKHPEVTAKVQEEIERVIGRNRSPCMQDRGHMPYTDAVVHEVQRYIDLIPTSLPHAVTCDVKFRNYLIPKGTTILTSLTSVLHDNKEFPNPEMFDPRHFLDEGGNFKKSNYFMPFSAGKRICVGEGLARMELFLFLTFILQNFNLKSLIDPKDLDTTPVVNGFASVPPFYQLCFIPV

Compound: C[C@H]1C[C@H](C(=O)O)CC[C@H]1C(=O)N1CC[C@@]2(S(=O)(=O)c3ccccc3)c3cc(F)c(C(F)(C(F)(F)F)C(F)(F)F)cc3CC[C@@H]12
- bioavailability [1]: 100%
- clearance [2]: 2.6 mL/min/kg
- solubility [3]: 350 µg/mL (≈ 524 µM)
- AUC [4]: 39 µM·h
- bioavailability [5]: 90%
- Vd [6]: 1.3 L/kg
- EC50 [7]: > 10 µM
- Cmax [8]: 4.1 µM
- half-life [9]: 27 h
- solubility [10]: 1.4 µg/mL (≈ 2.1 µM)
- Papp [11]: 12 ×10⁻⁶ cm/s
- AUC [12]: 80 µM·h
- clearance [13]: 0.3 mL/min/kg
- half-life [14]: > 2 h
- AUC [15]: 23 µM·h
- IC50 [16]: > 20 µM
- clearance [17]: 1.1 mL/min/kg
- bioavailability [18]: 100%
- half-life [19]: 5.8 h
- half-life [20]: 28 h
- EC50 [21]: > 7.5 µM
- IC50 [22]: > 20 µM
- IC50 [23]: > 20 µM
- fraction unbound [24]: 0.012
- half-life [25]: > 2 h
- half-life [26]: > 2 h
- half-life [27]: > 2 h
- EC50 [28]: > 10 µM
- AUC [29]: 144 µM·h
- Vd [30]: 1.2 L/kg
